Results published in patent publication US20110166196A1, “TREATMENT AND PROPHYLAXIS OF EPILEPSY AND FEBRILE SEIZURES” (priority 2008, published 2011).

What was measured:
[1] = target: T1, TRPV1 channels (Mus musculus, UniProt Q704Y3); assay: TRPV1 agonist-evoked inward current and depolarization in CA1 pyramidal neurons; type: cell-based
T1 construct: whole-cell recordings from acutely prepared brain slices from wild type C57BL/6 mice; from tissue; host or cells: acute coronal hippocampal slices from P14-P20 wild-type C57BL/6 mice: CA1 pyramidal neurons
T1 sequence (Q704Y3 whole entry): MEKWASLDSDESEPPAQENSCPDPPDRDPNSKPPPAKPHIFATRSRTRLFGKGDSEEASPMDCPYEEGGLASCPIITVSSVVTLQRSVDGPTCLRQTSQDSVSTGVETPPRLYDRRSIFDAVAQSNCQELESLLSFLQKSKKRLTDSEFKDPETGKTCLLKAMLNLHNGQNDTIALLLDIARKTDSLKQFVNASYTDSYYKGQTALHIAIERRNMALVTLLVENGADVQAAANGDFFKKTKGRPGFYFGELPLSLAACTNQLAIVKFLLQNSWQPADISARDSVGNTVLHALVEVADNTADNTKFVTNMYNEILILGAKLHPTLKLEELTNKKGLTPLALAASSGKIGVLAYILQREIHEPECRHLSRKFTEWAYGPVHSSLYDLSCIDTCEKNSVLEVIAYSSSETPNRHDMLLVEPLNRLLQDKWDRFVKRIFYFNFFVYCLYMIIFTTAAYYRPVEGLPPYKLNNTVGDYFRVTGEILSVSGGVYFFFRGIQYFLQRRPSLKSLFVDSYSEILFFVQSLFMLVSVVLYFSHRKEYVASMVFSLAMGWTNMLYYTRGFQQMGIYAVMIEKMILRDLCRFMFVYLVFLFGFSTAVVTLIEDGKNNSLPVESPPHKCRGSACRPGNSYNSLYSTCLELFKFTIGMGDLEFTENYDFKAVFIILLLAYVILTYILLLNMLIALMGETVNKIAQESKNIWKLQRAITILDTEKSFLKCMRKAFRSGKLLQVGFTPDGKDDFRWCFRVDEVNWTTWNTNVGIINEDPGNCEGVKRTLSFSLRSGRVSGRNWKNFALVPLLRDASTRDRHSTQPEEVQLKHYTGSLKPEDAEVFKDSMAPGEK

[2] = system: excitatory synapses onto CA1 hippocampal interneurons; assay: HFS-induced long-term depression (LTD) of EPSCs, whole-cell recording in hippocampal slices; type: cell-based, rat
Source text: (§1) The basic methods have been detailed previously (McMahon and Kauer, 1997). Sprague-Dawley rats (15-22 days old) were used in the majority of experiments. In addition, we used TRPV1^−/− mice (Caterina et al., 2000) and wild-type C57BL/6 mice aged between 15 and 21 days (Jackson Laboratory). The TRPV1^−/− mice we used have been backcrossed at least 10 times onto a C57BL/6 background and were obtained from homozygous breeding pairs. Control mice were therefore not littermates but were age-matched, wild-type C57BL/6 animals received from the same supplier in the same shipment. All animal protocols were approved by the Brown University Institutional Animal Care and Use Committee. For mouse experiments, only one brain slice per mouse was used for each experiment, so that reported ‘n’ numbers represent the number of animals. Animals were anaesthetized using halothane or isoflurane and quickly decapitated. The brain was rapidly removed and 300 μm thick coronal slices prepared and stored for at least one hour submerged on a net in artificial cerebrospinal fluid (ACSF) containing in mM: 119 NaCl, 26 NaHCO3, 2.5 KCl, 1.0 NaH2PO4, 2.5 CaCl2, 1.3 MgSO4 and 11 dextrose, saturated with 95% O2/5% CO2 (pH 7.4). Slices were then transferred to a submerged recording chamber and bathed in oxygenated ACSF (28-32° C.) containing elevated divalent cations to reduce epileptiform activity (4 mM CaCl2 and 4 mM MgCl2, replacing MgSO4). A surgical cut was made between the CA3 and CA1 regions. The storage of slices submerged on a net rather than in an interface chamber on filter paper may be important in maintaining slice health and improving the likelihood of observing LTD.
(§2) Slices were continuously perfused with ACSF warmed to 28-32° C. at a flow rate of 1-2 ml/min. Picrotoxin (100 μM) and D-AP5 (50 μM) were added to block GABAA receptor- and NMDAR-mediated synaptic transmission. Whole-cell patch clamp recordings were made from interneurons identified visually in the CA1 stratum radiatum of the hippocampus. […] Patch pipettes were filled with internal recording solution containing in mM: 117 cesium gluconate, 2.8 NaCl, 5 MgCl2, 20 HEPES, 2 ATP-Na^+, 0.3 GTP-Na^+ and 0.6 EGTA. In some experiments 2 μM capsazepine, 140 nM baicalein, or 250 μM GDPβS were also included in the intracellular patch pipette solution. In experiments with BAPTA-containing patch electrodes, EGTA was omitted from the intracellular solution and 25 or 40 mM BAPTA replaced a corresponding amount of cesium gluconate. EPSCs were stimulated at 0.1 Hz (100 μsec) using a bipolar stainless steel stimulating electrode placed in stratum radiatum at least 200 μm from the recorded cell. CA1 interneurons were voltage clamped at −65 mV (not corrected for the liquid junction potential, of ˜10 mV), and EPSCs were evoked by paired pulses with an interval of 50 msec (stimulus intensity typically 50-400 μA). In early experiments, we measured rectification ratios of EPSCs evoked at +40 mV/−60 mV in the presence of 50 μM D-AP5, measured at the time of peak inward synaptic current seen at −70 mV (Lei and McBain, 2004).
High-frequency stimulation was used to induce LTD (HFS; two 1 sec trains at 100 Hz, inter-train interval 20 sec, at 1.5 times test current intensity) with the neuron held in current-clamp mode, so that the HFS trains were delivered with the membrane potential free to vary. Receptor antagonists were added directly to the ACSF at known concentrations for at least 10 minutes prior to HFS. Control experiments were interleaved with those experiments using receptor antagonists or involving slices from TRPVl^−/− mice. The cell input resistance and series resistance were monitored throughout each experiment; cells were discarded if these values changed by more than 10% during the experiment.

[3] = target: T2, TRPV1 receptors (Rattus norvegicus, UniProt O35433); assay: Capsaicin-evoked inward current (peak change in holding current) in hippocampal neurons; type: cell-based
T2 construct: inward currents were elicited in both CA3 and CA1 pyramidal cells; from tissue; host or cells: acute coronal hippocampal slices: CA1 and CA3 pyramidal cells and CA1 stratum radiatum interneurons
T2 sequence (O35433 whole entry): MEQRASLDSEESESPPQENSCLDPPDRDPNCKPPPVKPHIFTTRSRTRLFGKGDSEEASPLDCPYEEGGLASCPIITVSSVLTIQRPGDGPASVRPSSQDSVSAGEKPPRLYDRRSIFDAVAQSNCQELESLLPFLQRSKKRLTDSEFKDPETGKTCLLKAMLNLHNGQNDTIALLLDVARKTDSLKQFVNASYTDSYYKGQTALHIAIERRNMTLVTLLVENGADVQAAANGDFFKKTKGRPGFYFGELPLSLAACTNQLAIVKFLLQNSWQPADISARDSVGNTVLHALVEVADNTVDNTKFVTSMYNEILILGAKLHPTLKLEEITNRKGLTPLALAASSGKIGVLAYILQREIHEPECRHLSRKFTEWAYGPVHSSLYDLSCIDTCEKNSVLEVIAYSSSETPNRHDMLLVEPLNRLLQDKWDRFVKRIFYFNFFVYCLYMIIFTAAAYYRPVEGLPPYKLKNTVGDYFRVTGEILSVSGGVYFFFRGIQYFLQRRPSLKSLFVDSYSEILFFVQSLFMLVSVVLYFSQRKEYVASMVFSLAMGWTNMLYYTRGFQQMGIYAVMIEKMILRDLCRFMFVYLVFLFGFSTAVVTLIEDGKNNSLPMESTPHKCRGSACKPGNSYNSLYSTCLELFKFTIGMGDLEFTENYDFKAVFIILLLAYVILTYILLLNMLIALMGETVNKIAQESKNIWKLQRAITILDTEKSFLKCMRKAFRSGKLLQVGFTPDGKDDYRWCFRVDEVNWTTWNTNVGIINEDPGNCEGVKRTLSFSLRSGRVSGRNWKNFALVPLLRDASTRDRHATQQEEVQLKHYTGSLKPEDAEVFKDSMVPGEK
Method: as §2
The maximal initial slope of fEPSPs was calculated using a LabVIEW-based program (National Instruments). The peak amplitude of each EPSC was measured by comparing a 10 msec time period immediately prior to the stimulus with the peak of the EPSC using this program as well. Occasionally polysynaptic responses were evoked, and in these cases, only the initial monosynaptic event was measured. To positively identify LTD, EPSCs measured every 10 seconds were averaged in 1 minute intervals. EPSC amplitude values were normalized to control pre-HFS EPSC amplitude values (baseline period of at least 5 minutes prior to HFS) and subjected to analysis of variance (ANOVA) repeated measures analysis with a post-hoc Dunnett's test (GraphPad Prism, Version 4). […] EPSC amplitude values 15 to 20 minutes post-HFS were compared between control LTD experiments and those carried out either in transgenic TRPV1^−/− mice, or in the presence of drug using a t-test (unpaired, two-tailed, with Welch's correction if the variances between the groups were unequal). To calculate the effects of capsaicin, 12-(S)-HPETE or WIN 55,212-2 application on basal excitatory glutamatergic transmission, normalized EPSC amplitudes or fEPSP slopes were averaged in the final 5 minutes of drug application and compared with EPSCs/EPSPs 5 minutes prior to drug application. […] The n-values reported refer to the number of slices. All combined data are expressed as mean±the standard error of the mean (s.e.m.).

[4] = system: excitatory synapses onto CA1 hippocampal interneurons; assay: Drug-induced depression of EPSC amplitudes, whole-cell recording in hippocampal slices; type: cell-based, rat
Source text: as §1, §2
The maximal initial slope of fEPSPs was calculated using a LabVIEW-based program (National Instruments). The peak amplitude of each EPSC was measured by comparing a 10 msec time period immediately prior to the stimulus with the peak of the EPSC using this program as well. Occasionally polysynaptic responses were evoked, and in these cases, only the initial monosynaptic event was measured. To positively identify LTD, EPSCs measured every 10 seconds were averaged in 1 minute intervals. EPSC amplitude values were normalized to control pre-HFS EPSC amplitude values (baseline period of at least 5 minutes prior to HFS) and subjected to analysis of variance (ANOVA) repeated measures analysis with a post-hoc Dunnett's test (GraphPad Prism, Version 4).

[5] = capsaicin 3 μM, capsazepine 10 μM, n=5

Compound | effect on capsaicin-induced depolarization of CA1 pyramidal neurons ([1]; 2 μM intracellular capsazepine, capsaicin 3 μM, p<0.001) | capsaicin-evoked current in the presence of capsazepine ([1]; capsaicin 3 μM plus capsazepine 10 μM) | effect on 12-(S)-HPETE-evoked inward current ([1]; capsazepine 10 μM, 12-(S)-HPETE 100 nM) | EPSC amplitudes 10-15 minutes after adding capsazepine ([2]; 10 μM capsazepine added 10 minutes after HFS (LTD maintenance), n=6) | EPSC amplitudes 15-20 minutes post-HFS with intracellular capsazepine ([2]; capsazepine 2 μM in patch pipette, P=0.20 vs control LTD, n=7) | EPSC amplitudes 15-20 minutes post-HFS in capsazepine ([2]; capsazepine 10 μM bath applied prior to HFS, n=9) | Peak capsaicin response in the presence of capsazepine in CA1 interneurons ([3]; capsaicin 3 μM, capsazepine 10 μM, P=0.06, n=5) | Peak capsaicin response in the presence of capsazepine in CA1 pyramidal cells [3, 5] | Peak capsaicin response in the presence of capsazepine in CA3 pyramidal cells [3, 5] | EPSC amplitudes after 10-15 minutes in 1 μM capsaicin and in the presence of intracellular capsazepine ([4]; capsazepine 2 μM in patch pipette, capsaicin 1 μM bath, n=6) | EPSC amplitudes after 10-15 minutes in 12-(S)-HPETE and in the presence of capsazepine ([4]; capsazepine 10 μM, 12-(S)-HPETE 100 nM, n=6) | capsaicin-evoked current in a CA1 neuron ([1]; capsaicin 3 μM bath-applied) | effect on membrane potential of CA1 pyramidal neurons ([1]; capsaicin 3 μM bath-applied, current-clamp) | EPSC amplitudes 15-20 minutes post-HFS ([2]; HFS after capsaicin 1 μM exposure (occlusion), n=10) | 1 μM capsaicin response in interneurons ([3]; 1 μM capsaicin, P=0.78 vs pre-drug, n=5) | peak capsaicin response in CA3 pyramidal cells (inward current) ([3]; 3 μM capsaicin bath application, n=5) | peak capsaicin response in CA1 pyramidal cells (inward current) ([3]; 3 μM capsaicin bath application, n=7) | peak capsaicin response in interneurons (inward current) ([3]; 3 μM capsaicin, CA1 stratum radiatum interneurons, n=5) | EPSC amplitudes after 10-15 minutes in capsaicin ([4]; capsaicin 1 μM bath-applied, n=14)
Oc1cc2c(cc1O)CN(C(=S)NCCc1ccc(Cl)cc1)CCC2 [capsazepine] | prevented | does not induce current | blocked | 50.1±6.1 % of pre-HFS values | 47.5±10.3 % of control values before HFS | 105.6±8.6 % of control values before HFS | 0.4±0.2 pA | 0.1±0.1 pA | 0.1±0.1 pA | 46.8±10.3 % of pre-capsaicin control values | 103.0±8.9 % of pre-12-(S)-HPETE control values | – | – | – | – | – | – | – | –
COc1cc(CNC(=O)CCCCC=CC(C)C)ccc1O [capsaicin, 8-methyl-N-vanillyl-6-nonenamide] | – | – | – | – | – | – | – | – | – | – | – | induces inward current | significantly depolarized | 112.5±21.9 % of control values in capsaicin before HFS | 0.7±0.3 pA | 180.1±48.0 pA | 160.1±55.3 pA | 41.6±16.2 pA | 73.3±4.6 % of pre-drug control values
